Data published in patent US10414769B2, “5,8-dimethyl-9-phenyl-5,8-dihydro-6H-pyrazolo[3,4-h]quinazolin-2-yl)-(1H-pyrazol-3-yl)-amines as IGF-1R/IR inhibitors” (Boehringer Ingelheim International GmbH, priority 2015, dated 2019).

Experiments:
ABL1 = molecular target: T1, ABL1 (Homo sapiens, UniProt P00519); experiment: Z'-LYTE kinase selectivity assay ABL1; assay type: biochemical
T1 construct: purchased Life Technologies P3049
Excerpt: (§1) In order to compare the kinase selectivity of compounds (I) according to the invention with known prior art compounds the commercially provided SelectScreen® Kinase Profiling Service (Z′-LYTE®) was used (Life Technologies GmbH, Darmstadt, Germany) to investigate the ability of the compounds to inhibit a number of different, representatively selected human kinases. Further details regarding this service are available on the Life Technologies website at
(§2) The Z′-LYTE® biochemical assay employs a fluorescence-based, coupled-enzyme format and is based on the differential sensitivity of phosphorylated and non-phosphorylated peptides to proteolytic cleavage. The peptide substrate is labeled with two fluorophores—one at each end—that make up a FRET pair.
(§3) In the primary reaction, the kinase transfers the gamma-phosphate of ATP to a single tyrosine, serine or threonine residue in a synthetic FRET-peptide. In the secondary reaction, a site-specific protease recognizes and cleaves non-phosphorylated FRET-peptides. Phosphorylation of FRET-peptides suppresses cleavage by the Development Reagent. Cleavage disrupts FRET between the donor (i.e., coumarin) and acceptor (i.e., fluorescein) fluorophores on the FRET-peptide, whereas uncleaved, phosphorylated FRET-peptides maintain FRET. A ratiometric method, which calculates the ratio (the Emission Ratio) of donor emission to acceptor emission after excitation of the donor fluorophore at 400 nm, is used to quantitate reaction progress, as shown in the equation below.
(§4) The Test Compounds are screened at 1 μM.
The 2×ABL1 (# P3049)/Tyr 02 (Z′-LYTE® Kinase Assay Kit—Tyrosine 2 Peptide, # PV 3191) mixture is prepared in 50 mM HEPES pH 7.5, 0.01% BRIJ-35, 10 mM MgCl2, 1 mM EGTA. The final 10 μL Kinase Reaction consists of 0.29-2.52 ng ABL1 and 2 μM Tyr 02 in 50 mM HEPES pH 7.5, 0.01% BRIJ-35, 10 mM MgCl2, 1 mM EGTA. After the 1 hour Kinase Reaction incubation, 5 μL of a 1:128 dilution of Development Reagent A is to added.

FGFR1 = molecular target: T2, FGFR1 (Homo sapiens, UniProt P11362); experiment: Z'-LYTE kinase selectivity assay FGFR1; assay type: biochemical
T2 construct: purchased Life Technologies PV 3146
Excerpt: as §1, §2, §3, §4
The 2×FGFR1 (# PV 3146)/Tyr 04 (Z′-LYTE® Kinase Assay Kit—Tyrosine 4 Peptide, # PV 3193) mixture is prepared in 50 mM HEPES pH 7.5, 0.01% BRIJ-35, 10 mM MgCl2, 4 mM MnCl2, 1 mM EGTA, 2 mM DTT. The final 10 μL Kinase Reaction consists of 0.44-2.45 ng FGFR1 and 2 μM Tyr 04 in 50 mM HEPES pH 7.5, 0.01% BRIJ-35, 10 mM MgCl2, 2 mM MnCl2, 1 mM EGTA, 1 mM DTT. After the 1 hour Kinase Reaction incubation, 5 μL of a 1:64 dilution of Development Reagent B is added.

[1] = tested on: TC-71 (EWING'S sarcoma) cells; experiment: Cell proliferation assay TC-71 (Alamar Blue); assay type: cell-based; conditions: anti-proliferative effect, TC-71 cells, 72 h; read-out: TC71 EC50
Description: Cell Proliferation Assays
Compounds were tested for their anti-proliferative effects in the TC-71 (EWING'S sarcoma) and HCT 116 (colorectal carcinoma) cancer cell lines in vitro. Published scientific data has described that interference with the IGF-1R signaling pathway reduces the proliferation of TC-71 cells (Manara et al, 2007). Therefore TC-71 cells served as a positive control cell line for monitoring the activity of compounds against IGF-1R-mediated cell proliferation. […] Therefore the HCT 116 cell line served as a negative control.
2000 TC-71 cells or 1000 HCT 116 cells were seeded per well in 180 μL IMDM+10% foetal calf serum (FCS)+penicillin/streptomycin into 96-well microtitre plates. The plates were placed in a cell culture incubator (37° C. in a humidified atmosphere of […]/5% CO2) overnight. The following day, serial dilutions of compounds, prepared in duplicates, were transferred onto the cell layers (controls without compound). The cells were cultivated for a further 72 h in the cell culture incubator. 20 μL of Alamar Blue™ (Serotec Ltd, Dusseldorf, Germany) was added to each well and the plates incubated for 7 h in the cell culture incubator. Fluorescence (extinction wavelength of 544 nm and emission at 590 nm) was then measured and the normalized data fitted by iterative calculation with a sigmoidal curve analysis program (Graph Pad Prism) with a variable Hill slope to determine the EC50 values.

MAPKAPK2 = molecular target: T3, MAPKAPK2 (Homo sapiens, UniProt P49137); experiment: Z'-LYTE kinase selectivity assay MAPKAPK2; assay type: biochemical
T3 construct: purchased Life Technologies PV 3317
Excerpt: as §1, §2, §3, §4
The 2×MAPKAPK2 (# PV 3317)/Ser/Thr 04 (Z′-LYTE® Kinase Assay Kit—Ser/Thr 4 Peptide, # PV 3177) mixture is prepared in 50 mM HEPES pH 7.5, 0.01% BRIJ-35, 10 mM MgCl2, 1 mM EGTA. The final 10 μL Kinase Reaction consists of 0.04-0.18 ng MAPKAPK2 and 2 μM Ser/Thr 04 in 50 mM HEPES pH 7.5, 0.01% BRIJ-35, 10 mM MgCl2, 1 mM EGTA. After the 1 hour Kinase Reaction incubation, 5 μL of a 1:1024 dilution of Development Reagent A is added.

T2 sequence (P11362 22-822): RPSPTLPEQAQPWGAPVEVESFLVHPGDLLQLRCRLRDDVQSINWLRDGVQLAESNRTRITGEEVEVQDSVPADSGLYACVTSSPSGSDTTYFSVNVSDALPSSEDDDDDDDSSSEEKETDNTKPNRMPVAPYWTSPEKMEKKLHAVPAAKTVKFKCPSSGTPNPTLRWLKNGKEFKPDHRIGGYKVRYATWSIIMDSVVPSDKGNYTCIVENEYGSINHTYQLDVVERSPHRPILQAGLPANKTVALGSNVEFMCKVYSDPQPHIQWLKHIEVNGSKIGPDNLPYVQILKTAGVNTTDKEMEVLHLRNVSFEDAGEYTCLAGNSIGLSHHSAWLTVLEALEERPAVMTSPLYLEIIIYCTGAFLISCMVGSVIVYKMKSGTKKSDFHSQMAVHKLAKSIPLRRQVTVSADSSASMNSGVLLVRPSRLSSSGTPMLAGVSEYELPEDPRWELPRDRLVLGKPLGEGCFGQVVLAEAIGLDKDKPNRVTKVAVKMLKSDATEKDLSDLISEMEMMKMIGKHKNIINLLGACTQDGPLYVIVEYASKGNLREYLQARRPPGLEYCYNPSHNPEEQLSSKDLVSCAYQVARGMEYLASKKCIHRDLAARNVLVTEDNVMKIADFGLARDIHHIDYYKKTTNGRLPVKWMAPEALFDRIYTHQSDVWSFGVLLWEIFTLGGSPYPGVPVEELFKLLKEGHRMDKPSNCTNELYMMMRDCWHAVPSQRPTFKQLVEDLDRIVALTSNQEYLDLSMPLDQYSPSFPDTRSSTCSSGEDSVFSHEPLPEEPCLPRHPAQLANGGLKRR
T3 sequence (P49137 whole entry): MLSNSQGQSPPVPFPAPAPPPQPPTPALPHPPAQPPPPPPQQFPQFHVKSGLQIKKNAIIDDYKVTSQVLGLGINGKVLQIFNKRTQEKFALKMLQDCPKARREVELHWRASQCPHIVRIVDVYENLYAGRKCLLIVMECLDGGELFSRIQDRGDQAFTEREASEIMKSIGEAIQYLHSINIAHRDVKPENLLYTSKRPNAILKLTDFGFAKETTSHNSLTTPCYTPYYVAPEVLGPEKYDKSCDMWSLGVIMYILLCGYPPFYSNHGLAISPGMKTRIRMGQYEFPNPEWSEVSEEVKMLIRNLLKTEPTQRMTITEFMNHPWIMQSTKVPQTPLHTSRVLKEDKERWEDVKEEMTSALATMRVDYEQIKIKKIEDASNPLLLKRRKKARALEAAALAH
T1 sequence (P00519 whole entry): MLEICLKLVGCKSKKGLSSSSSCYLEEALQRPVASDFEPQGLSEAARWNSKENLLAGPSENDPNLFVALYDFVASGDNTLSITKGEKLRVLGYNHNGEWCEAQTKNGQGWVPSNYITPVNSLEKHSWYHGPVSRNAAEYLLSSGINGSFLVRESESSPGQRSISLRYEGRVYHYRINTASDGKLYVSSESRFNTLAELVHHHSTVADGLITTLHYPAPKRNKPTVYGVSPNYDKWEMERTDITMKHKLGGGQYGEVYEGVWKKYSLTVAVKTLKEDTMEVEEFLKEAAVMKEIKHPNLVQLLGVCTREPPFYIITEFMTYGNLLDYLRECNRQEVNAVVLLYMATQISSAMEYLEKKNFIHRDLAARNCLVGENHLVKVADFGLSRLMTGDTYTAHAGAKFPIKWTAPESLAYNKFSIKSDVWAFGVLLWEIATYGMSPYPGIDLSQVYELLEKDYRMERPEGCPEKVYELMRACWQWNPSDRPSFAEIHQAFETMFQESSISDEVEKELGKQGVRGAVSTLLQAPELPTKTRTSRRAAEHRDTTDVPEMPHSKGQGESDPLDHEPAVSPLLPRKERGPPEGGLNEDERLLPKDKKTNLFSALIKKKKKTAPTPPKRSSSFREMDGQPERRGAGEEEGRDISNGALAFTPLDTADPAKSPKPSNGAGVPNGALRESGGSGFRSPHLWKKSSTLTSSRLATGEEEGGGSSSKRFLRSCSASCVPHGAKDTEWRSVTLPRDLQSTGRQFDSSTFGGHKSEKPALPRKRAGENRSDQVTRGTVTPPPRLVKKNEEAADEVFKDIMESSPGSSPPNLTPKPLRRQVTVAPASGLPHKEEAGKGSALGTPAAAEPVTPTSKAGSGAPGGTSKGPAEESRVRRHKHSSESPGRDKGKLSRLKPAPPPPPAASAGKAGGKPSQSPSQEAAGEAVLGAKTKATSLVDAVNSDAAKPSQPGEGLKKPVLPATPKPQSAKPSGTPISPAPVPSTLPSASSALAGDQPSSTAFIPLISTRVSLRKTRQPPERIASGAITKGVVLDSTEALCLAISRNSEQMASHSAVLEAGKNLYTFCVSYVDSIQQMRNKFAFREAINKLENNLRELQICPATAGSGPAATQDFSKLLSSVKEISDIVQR

Q: With `C[C@@H]1Cc2nn(C)c(-c3ccccc3)c2-c2nc(Nc3ccn(CCN4CCN(C)CC4)n3)ncc21` [Compound I-1] as the compound, how does the inhibition at 1 µM (ABL1) read?
A: The inhibition at 1 µM was 24%.

Q: And the inhibition at 1 µM (FGFR1)?
A: The inhibition at 1 µM was 30%.

Q: What about the EC50 [1] of the same compound?
A: Its EC50 is 2.62 nM.

Q: And the inhibition at 1 µM (MAPKAPK2)?
A: The inhibition at 1 µM was -3%.

Q: Which results are given for `C[C@@H]1Cc2nn(C)c(-c3ccccc3)c2-c2nc(Nc3ccn(CCN4CCOCC4)n3)ncc21` [Compound I-2]?
A: inhibition at 1 µM (ABL1): 17%; inhibition at 1 µM (FGFR1): 40%; EC50 [1]: 2.35 nM; inhibition at 1 µM (MAPKAPK2): 1%

Q: `C[C@@H]1Cc2nn(C)c(-c3ccccc3)c2-c2nc(Nc3ccn(CCN4CCN(CC(C)(C)O)CC4)n3)ncc21` [Compound I-3] was tested. Which inhibition at 1 µM (ABL1) did it give?
A: Its inhibition at 1 µM is 27%.

Q: And the inhibition at 1 µM (FGFR1)?
A: The inhibition at 1 µM was 34%.

Q: And the EC50 [1]?
A: Its EC50 is 2.67 nM.

Q: And the inhibition at 1 µM (MAPKAPK2)?
A: The inhibition at 1 µM was 2%.

Q: Which inhibition at 1 µM (ABL1) does the source give for `CC(O)CN1CCN(CCn2ccc(Nc3ncc4c(n3)-c3c(nn(C)c3-c3ccccc3)C[C@H]4C)n2)CC1` (stereo partly shown) [Compound I-7] here?
A: Its inhibition at 1 µM is 22%.

Q: And the inhibition at 1 µM (FGFR1)?
A: Its inhibition at 1 µM is 34%.

Q: What about the EC50 [1] of the same compound?
A: The EC50 was 2.17 nM.

Q: And the inhibition at 1 µM (MAPKAPK2)?
A: The inhibition at 1 µM was 5%.

Q: Which results are given for `C[C@@H]1Cc2nn(C)c(-c3ccccc3)c2-c2nc(Nc3ccn(CCN4CCN(CC(=O)OC5CCOCC5)CC4)n3)ncc21` [Compound I-8]?
A: inhibition at 1 µM (ABL1): 10%; inhibition at 1 µM (FGFR1): 29%; EC50 [1]: 5.98 nM; inhibition at 1 µM (MAPKAPK2): 5%

Q: Which inhibition at 1 µM (ABL1) does the source give for `C[C@@H]1Cc2nn(C)c(-c3ccccc3)c2-c2nc(Nc3ccn(CCN4CCN(CC5CCCO5)CC4)n3)ncc21` (stereo partly shown) [Compound I-9] here?
A: The inhibition at 1 µM was 17%.

Q: And the inhibition at 1 µM (FGFR1)?
A: The inhibition at 1 µM was 32%.

Q: And the EC50 [1]?
A: The EC50 was 5.43 nM.

Q: And the inhibition at 1 µM (MAPKAPK2)?
A: The inhibition at 1 µM was 3%.

Q: With `COCCN1CCN(CCn2ccc(Nc3ncc4c(n3)-c3c(nn(C)c3-c3ccccc3)C[C@H]4C)n2)CC1` [Compound I-11] as the compound, how does the inhibition at 1 µM (ABL1) read?
A: Its inhibition at 1 µM is 10%.

Q: What about the inhibition at 1 µM (FGFR1) of the same compound?
A: The inhibition at 1 µM was 28%.

Q: What about the EC50 [1] of the same compound?
A: The EC50 was 3.74 nM.

Q: And the inhibition at 1 µM (MAPKAPK2)?
A: Its inhibition at 1 µM is -2%.
